Experimental data from US9951088B2, “D2 receptor modulators and methods of use thereof in the treatment of diseases and disorders” (SUNOVION PHARMACEUTICALS INC., priority 2012, dated 2018).
One block for each compound: values may come before it.

Tests used:
[1] = molecular target: T1, long isoform of human D2 receptor (Homo sapiens, UniProt P14416); assay: cAMP HTRF Agonist Assay (DRD2L PathHunter CHO-K1 cells, forskolin-stimulated); settings: for Emax: CHO-K1, read-out: cAMP (agonist mode) Emax
Method: Cell Lines: Activities of the compounds were assessed using a Chinese Hamster Ovary (CHO—K1) cell line that recombinantly expressed the long isoform of human D2 receptor (DRD2L PathHunter cells). The D2 receptor DNA sequence was modified to contain a “ProLink” at its C-terminus which allowed complementation with an “enzyme acceptor” (EA)-tagged β-arrestin protein. The recruitment of the O-arrestin by the D2 receptor led to complementation of the ProLink and EA and formation of active β-galactosidase which generated a D2-specific signal that was measured. The cAMP assay was measured in the same D2-expressing cell line. The D2 receptor inhibited cAMP formation so that the basal levels of cAMP were increased by the addition of an adenylate cyclase stimulator, forskolin.
cAMP HTRF Agonist Assay: Two days prior to testing, a vial of high density stock of DRD2L PathHunter cells was thawed, and cells were diluted into 10 mL of growth media (Ham's F12/10% HI FBS/1% PSG) and used to seed a T225 flask containing 50 mL of growth media. Cells were cultured for 2 days.
On the day of the assay, cells were dissociated in 5 mL cell dissociation buffer (enzyme free—Invitrogen) for 10-15 minutes at 37° C. Dissociated cells were diluted with 10 mL of growth media and counted. Cell counts were routinely ˜2×10^7 per T225. Cells were then pelleted at 1500 rpm for 5 min. Supernatant was aspirated, and cells were re-suspended in HBSS/20 mM Hepes, pH 7.4 to a cell density of 1×10^6/mL.
cAMP levels were determined using the Cisbio HTRF method. HRTF reagents (cAMP-HTRF acceptor fluorophore (d2) conjugate and cryptate-labeled anti-cAMP antibody) were prepared according to maunfacturers instructions. 5 μL of each were added to each well of an assay plate and incubated for 1 h at RT. The plate was then read on an Envision reader using the HTRF protocol, and data were exported for analysis.
(§1) The agonist Emax results were expressed as a percent of the dopamine control response ((measured specific response/control specific agonist response)×100) obtained in the presence of test article. The EC50 values (concentration producing a half-maximal specific response) were determined by non-linear regression analysis of the concentration-response curves.

[2] = molecular target: T1, long isoform of human D2 receptor; assay: Arrestin Agonist Assay (DRD2L PathHunter CHO-K1 cells, β-arrestin recruitment); settings: for Emax: CHO-K1, read-out: β-arrestin (agonist mode) Emax
Method: (§2) Cell Lines: Activities of the compounds were assessed using a Chinese Hamster Ovary (CHO—K1) cell line that recombinantly expressed the long isoform of human D2 receptor (DRD2L PathHunter cells). The D2 receptor DNA sequence was modified to contain a “ProLink” at its C-terminus which allowed complementation with an “enzyme acceptor” (EA)-tagged β-arrestin protein. The recruitment of the O-arrestin by the D2 receptor led to complementation of the ProLink and EA and formation of active β-galactosidase which generated a D2-specific signal that was measured.
Arrestin Agonist Assay: One day prior to testing, a vial of high density stock of DRD2L PathHunter cells was thawed, and 1×10^7 cells diluted into 40 mL of growth media (Ham's F12/10% HI FBS/1% PSG). 20 μL cells per well were seeded directly into assay plates, and the plates were allowed to rest for 1 h at RT before incubating in a plate incubator overnight.
5 μL diluted compound was added to cells in each well, and the assay plate was incubated for 90 min at 37° C. 12.5 μL PathHunter detection reagent was added to each well of the assay plate, which was then covered and incubated for 1 h at RT. The plate was read on an Envision reader using the Luminescence protocol, and the data were exported for analysis.
as §1

[3] = molecular target: T1, long isoform of human D2 receptor; assay: Arrestin Antagonist Assay (DRD2L PathHunter CHO-K1 cells, vs EC80 dopamine); settings: for Emax: CHO-K1, read-out: β-arrestin (antagonist mode) Imax
Method: as §2
Arrestin Antagonist Assay: One day prior to testing, a vial of high density stock of DRD2L PathHunter cells was thawed, and 1×10^7 cells diluted into 40 mL of growth media (Ham's F12/10% HI FBS/1% PSG). 20 μL cells per well were seeded directly into assay plates, and the plates were allowed to rest for 1 h at RT before incubating in a plate incubator overnight.
The plate was incubated for 30 min at 37° C. 15 μL PathHunter detection reagent was added to each well of the assay plate, which was then covered and incubated for 1 h at RT. The plate was read on an Envision reader using the Luminescence protocol, and the data were exported for analysis.
The IC50 values (concentration producing a half-maximal inhibitory response) were determined by non-linear regression analysis of the concentration-response curves.

T1 sequence (P14416 whole entry, canonical isoform): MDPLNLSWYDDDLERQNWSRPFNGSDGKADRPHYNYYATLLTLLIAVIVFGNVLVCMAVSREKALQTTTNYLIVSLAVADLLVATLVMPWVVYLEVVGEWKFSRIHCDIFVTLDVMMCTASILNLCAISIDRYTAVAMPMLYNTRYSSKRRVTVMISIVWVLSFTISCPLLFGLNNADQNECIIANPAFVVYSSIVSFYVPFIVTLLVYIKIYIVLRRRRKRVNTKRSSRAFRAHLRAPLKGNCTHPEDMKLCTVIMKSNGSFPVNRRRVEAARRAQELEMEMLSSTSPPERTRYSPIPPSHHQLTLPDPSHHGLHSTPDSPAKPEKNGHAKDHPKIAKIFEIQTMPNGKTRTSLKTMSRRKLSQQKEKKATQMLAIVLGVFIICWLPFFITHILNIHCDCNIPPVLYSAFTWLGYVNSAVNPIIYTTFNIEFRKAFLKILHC

SMILES: Oc1cccc2ccc(OCCCCN3CCc4ccccc4C3)nc12 [Compound 12, 2-(4-(3,4-dihydroisoquinolin-2(1H)-yl)butoxy)quinolin-8-ol]
IC50 [1]: > 10000 nM
Emax [1]: < 10%
EC50 [2]: 10 to 100 nM
Emax [2]: 10 to 25%
IC50 [3]: 1000 to 10000 nM
Emax [3]: > 75%

SMILES: COc1ccc2c(c1)CCN(CCCCOc1ccc3cccc(O)c3n1)C2 [Compound 13, 2-(4-(6-methoxy-3,4-dihydroisoquinolin-2(1H)-yl)butoxy)quinolin-8-ol]
IC50 [1]: > 10000 nM
Emax [1]: < 10%
EC50 [2]: < 10 nM
Emax [2]: 10 to 25%
IC50 [3]: 1000 to 10000 nM
Emax [3]: > 75%

SMILES: Oc1cccc2ccc(OCCCCN3CCc4cc(Cl)ccc4C3)nc12 [Compound 14, 2-(4-(6-chloro-3,4-dihydroisoquinolin-2(1H)-yl)butoxy)quinolin-8-ol]
IC50 [1]: > 10000 nM
Emax [1]: < 10%
EC50 [2]: > 10000 nM
Emax [2]: < 10%
IC50 [3]: 1000 to 10000 nM
Emax [3]: > 75%

IC50 [1]: > 10000 nM
Emax [1]: < 10%
EC50 [2]: > 10000 nM
Emax [2]: < 10%
IC50 [3]: 1000 to 10000 nM
Emax [3]: > 75%
SMILES: N#Cc1ccc2c(c1)CCN(CCCCOc1ccc3cccc(O)c3n1)C2 [Compound 15, 2-(4-((8-hydroxyquinolin-2-yl)oxy)butyl)-1,2,3,4-tetrahydroisoquinoline-6-carbonitrile]

SMILES: Oc1cccc2ccc(OCCCCN3CCc4cc(F)ccc4C3)nc12 [Compound 16, 2-(4-(6-fluoro-3,4-dihydroisoquinolin-2(1H)-yl)butoxy)quinolin-8-ol]
IC50 [1]: > 10000 nM
Emax [1]: < 10%
EC50 [2]: > 10000 nM
Emax [2]: < 10%
IC50 [3]: 100 to 1000 nM
Emax [3]: > 75%

SMILES: Oc1cccc2ccc(OCCCCN3CCc4cc(C(F)(F)F)ccc4C3)nc12 [Compound 17, 2-(4-(6-(trifluoromethyl)-3,4-dihydroisoquinolin-2(1H)-yl)butoxy)quinolin-8-ol]
IC50 [1]: > 10000 nM
Emax [1]: < 10%
EC50 [2]: > 10000 nM
Emax [2]: < 10%
IC50 [3]: 1000 to 10000 nM
Emax [3]: > 75%

SMILES: Oc1cccc2ccc(OCCCCN3CCc4sccc4C3)nc12 [Compound 18, 2-(4-(6,7-dihydrothieno[3,2-c]pyridin-5(4H)-yl)butoxy)quinolin-8-ol]
IC50 [1]: > 10000 nM
Emax [1]: < 10%
EC50 [2]: > 10000 nM
Emax [2]: < 10%
IC50 [3]: 1000 to 10000 nM
Emax [3]: > 75%

SMILES: Oc1cccc2ccc(OCCCCN3CCc4ccsc4C3)nc12 [Compound 19, 2-(4-(4,5-dihydrothieno[2,3-c]pyridin-6(7H)-yl)butoxy)quinolin-8-ol]
IC50 [1]: > 10000 nM
Emax [1]: < 10%
EC50 [2]: > 10000 nM
Emax [2]: < 10%
IC50 [3]: 1000 to 10000 nM
Emax [3]: > 75%

SMILES: Oc1cccc2ccc(OCCCCN3CCc4c(Cl)cccc4C3)nc12 [Compound 20, 2-(4-(5-chloro-3,4-dihydroisoquinolin-2(1H)-yl)butoxy)quinolin-8-ol]
IC50 [1]: 10 to 100 nM
Emax [1]: 50 to 75%
EC50 [2]: 100 to 1000 nM
Emax [2]: > 75%
IC50 [3]: > 10000 nM
Emax [3]: < 10%

SMILES: Oc1cccc2ccc(OCCCCN3CCc4cccc(C(F)(F)F)c4C3)nc12 [Compound 21, 2-(4-(8-(trifluoromethyl)-3,4-dihydroisoquinolin-2(1H)-yl)butoxy)quinolin-8-ol]
IC50 [1]: < 10 nM
Emax [1]: 25 to 50%
EC50 [2]: > 10000 nM
Emax [2]: < 10%
IC50 [3]: 100 to 1000 nM
Emax [3]: > 75%

IC50 [1]: < 10 nM
Emax [1]: 25 to 50%
EC50 [2]: 10 to 100 nM
Emax [2]: 25 to 50%
IC50 [3]: 100 to 1000 nM
Emax [3]: 25 to 50%
SMILES: N#Cc1cccnc1N1CCN(CCCCOc2ccc3cccc(O)c3n2)CC1 [Compound 22, 2-(4-(4-((8-hydroxyquinolin-2-yl)oxy)butyl)piperazin-1-yl)nicotinonitrile]

SMILES: O=C1CCc2ccc(OCCCCN3CCc4ncncc4C3)cc2N1 [Compound 23, 7-(4-(7,8-dihydropyrido[4,3-d]pyrimidin-6(5H)-yl)butoxy)-3,4-dihydroquinolin-2(1H)-one]
IC50 [1]: 100 to 1000 nM
Emax [1]: 50 to 75%
EC50 [2]: 100 to 1000 nM
Emax [2]: 10 to 25%
IC50 [3]: 1000 to 10000 nM
Emax [3]: 25 to 50%

SMILES: Cn1cc2c(n1)CCN(CCCCOc1ccc3c(c1)NC(=O)CC3)C2 [Compound 24, 7-(4-(2-methyl-6,7-dihydro-2H-pyrazolo[4,3-c]pyridin-5(4H)-yl)butoxy)-3,4-dihydroquinolin-2(1H)-one]
IC50 [1]: 10 to 100 nM
Emax [1]: > 75%
EC50 [2]: 100 to 1000 nM
Emax [2]: 25 to 50%
IC50 [3]: 1000 to 10000 nM
Emax [3]: 25 to 50%

SMILES: O=C1CCc2ccc(OCCCCN3CCc4nccnc4C3)cc2N1 [Compound 25, 7-(4-(7,8-dihydropyrido[3,4-b]pyrazin-6(5H)-yl)butoxy)-3,4-dihydroquinolin-2(1H)-one]
IC50 [1]: 1000 to 10000 nM
Emax [1]: 50 to 75%
EC50 [2]: 100 to 1000 nM
Emax [2]: 25 to 50%
IC50 [3]: 1000 to 10000 nM
Emax [3]: 25 to 50%

SMILES: O=C1CCc2ccc(OCCCCN3CCc4ncsc4C3)cc2N1 [Compound 26, 7-(4-(6,7-dihydrothiazolo[5,4-c]pyridin-5(4H)-yl)butoxy)-3,4-dihydroquinolin-2(1H)-one]
IC50 [1]: 10 to 100 nM
Emax [1]: 25 to 50%
EC50 [2]: < 10 nM
Emax [2]: 10 to 25%
IC50 [3]: 1000 to 10000 nM
Emax [3]: > 75%

SMILES: O=C1CCc2ccc(OCCCCN3CCc4sccc4C3)cc2N1 [Compound 27, 7-(4-(6,7-dihydrothieno[3,2-c]pyridin-5(4H)-yl)butoxy)-3,4-dihydroquinolin-2(1H)-one]
IC50 [1]: < 10 nM
Emax [1]: 10 to 25%
EC50 [2]: > 10000 nM
Emax [2]: < 10%
IC50 [3]: 10 to 100 nM
Emax [3]: > 75%

SMILES: O=C1CCc2ccc(OCCCCN3CCc4ccsc4C3)cc2N1 [Compound 28, 7-(4-(4,5-dihydrothieno[2,3-c]pyridin-6(7H)-yl)butoxy)-3,4-dihydroquinolin-2(1H)-one]
IC50 [1]: < 10 nM
Emax [1]: 10 to 25%
EC50 [2]: > 10000 nM
Emax [2]: < 10%
IC50 [3]: 100 to 1000 nM
Emax [3]: > 75%

SMILES: CN(C)c1ncnc2c1CCN(CCCCOc1ccc3c(c1)NC(=O)CC3)C2 [Compound 29, 7-(4-(4-(dimethylamino)-5,6-dihydropyrido[3,4-d]pyrimidin-7(8H)-yl)butoxy)-3,4-dihydroquinolin-2(1H)-one]
IC50 [1]: 10 to 100 nM
Emax [1]: 25 to 50%
EC50 [2]: 100 to 1000 nM
Emax [2]: 25 to 50%
IC50 [3]: 100 to 1000 nM
Emax [3]: > 75%

SMILES: O=C1CCc2ccc(OCCCCN3CCc4nn(-c5ccccc5)cc4C3)cc2N1 [Compound 30, 7-(4-(2-phenyl-6,7-dihydro-2H-pyrazolo[4,3-c]pyridin-5(4H)-yl)butoxy)-3,4-dihydroquinolin-2(1H)-one]
IC50 [1]: 10 to 100 nM
Emax [1]: 25 to 50%
EC50 [2]: < 10 nM
Emax [2]: 10 to 25%
IC50 [3]: 10 to 100 nM
Emax [3]: > 75%

SMILES: O=C1CCc2ccc(OCCCCN3CCc4c(cnn4-c4ccccc4)C3)cc2N1 [Compound 31, 7-(4-(1-phenyl-6,7-dihydro-1H-pyrazolo[4,3-c]pyridin-5(4H)-yl)butoxy)-3,4-dihydroquinolin-2(1H)-one]
IC50 [1]: < 10 nM
Emax [1]: > 75%
EC50 [2]: < 10 nM
Emax [2]: > 75%
IC50 [3]: > 10000 nM
Emax [3]: < 10%

SMILES: O=C1CCc2ccc(OCCCCN3CCc4c(cnn4-c4cccc(Cl)c4)C3)cc2N1 [Compound 32, 7-(4-(1-(3-chlorophenyl)-6,7-dihydro-1H-pyrazolo[4,3-c]pyridin-5(4H)-yl)butoxy)-3,4-dihydroquinolin-2(1H)-one]
IC50 [1]: > 10000 nM
Emax [1]: < 10%
EC50 [2]: > 10000 nM
Emax [2]: < 10%
IC50 [3]: < 10 nM
Emax [3]: > 75%

SMILES: O=C1CCc2ccc(OCCCCN3CCn4cncc4C3)cc2N1 [Compound 33, 7-(4-(5,6-dihydroimidazo[1,5-a]pyrazin-7(8H)-yl)butoxy)-3,4-dihydroquinolin-2(1H)-one]
IC50 [1]: > 10000 nM
Emax [1]: < 10%
EC50 [2]: > 10000 nM
Emax [2]: < 10%
IC50 [3]: 1000 to 10000 nM
Emax [3]: 50 to 75%

SMILES: CCn1cc2c(n1)CCN(CCCCOc1ccc3c(c1)NC(=O)CC3)C2 [Compound 34, 7-(4-(2-ethyl-6,7-dihydro-2H-pyrazolo[4,3-c]pyridin-5(4H)-yl)butoxy)-3,4-dihydroquinolin-2(1H)-one]
IC50 [1]: 100 to 1000 nM
Emax [1]: 50 to 75%
EC50 [2]: 100 to 1000 nM
Emax [2]: 50 to 75%
IC50 [3]: > 10000 nM
Emax [3]: < 10%

SMILES: O=C1CCc2ccc(OCCCCN3CCc4nn(-c5ccccc5F)cc4C3)cc2N1 [Compound 35, 7-(4-(2-(2-fluorophenyl)-6,7-dihydro-2H-pyrazolo[4,3-c]pyridin-5(4H)-yl)butoxy)-3,4-dihydroquinolin-2(1H)-one]
IC50 [1]: > 10000 nM
Emax [1]: < 10%
EC50 [2]: > 10000 nM
Emax [2]: < 10%
IC50 [3]: 10 to 100 nM
Emax [3]: > 75%

SMILES: O=C1CCc2ccc(OCCCCN3CCc4nn(-c5cccc(F)c5)cc4C3)cc2N1 [Compound 36, 7-(4-(2-(3-fluorophenyl)-6,7-dihydro-2H-pyrazolo[4,3-c]pyridin-5(4H)-yl)butoxy)-3,4-dihydroquinolin-2(1H)-one]
IC50 [1]: < 10 nM
Emax [1]: > 75%
EC50 [2]: < 10 nM
Emax [2]: > 75%
IC50 [3]: > 10000 nM
Emax [3]: < 10%

SMILES: O=C1CCc2ccc(OCCCCN3CCc4nn(-c5ccc(F)cc5)cc4C3)cc2N1 [Compound 37, 7-(4-(2-(4-fluorophenyl)-6,7-dihydro-2H-pyrazolo[4,3-c]pyridin-5(4H)-yl)butoxy)-3,4-dihydroquinolin-2(1H)-one]
IC50 [1]: > 10000 nM
Emax [1]: < 10%
EC50 [2]: > 10000 nM
Emax [2]: < 10%
IC50 [3]: 10 to 100 nM
Emax [3]: > 75%
